For six compounds, IC50 results are on record in ChEMBL document CHEMBL1125855, “C-2 desmethyl seco-mevinic acids. Monocyclic HMG-CoA reductase inbibitors” (Bioorg Med Chem Lett, 1991).

The structures appear in SMILES notation.

Assay [1] has as its target T1, 3-hydroxy-3-methylglutaryl-coenzyme A reductase (Homo sapiens, UniProt P04035).
T1 sequence (P04035 whole entry): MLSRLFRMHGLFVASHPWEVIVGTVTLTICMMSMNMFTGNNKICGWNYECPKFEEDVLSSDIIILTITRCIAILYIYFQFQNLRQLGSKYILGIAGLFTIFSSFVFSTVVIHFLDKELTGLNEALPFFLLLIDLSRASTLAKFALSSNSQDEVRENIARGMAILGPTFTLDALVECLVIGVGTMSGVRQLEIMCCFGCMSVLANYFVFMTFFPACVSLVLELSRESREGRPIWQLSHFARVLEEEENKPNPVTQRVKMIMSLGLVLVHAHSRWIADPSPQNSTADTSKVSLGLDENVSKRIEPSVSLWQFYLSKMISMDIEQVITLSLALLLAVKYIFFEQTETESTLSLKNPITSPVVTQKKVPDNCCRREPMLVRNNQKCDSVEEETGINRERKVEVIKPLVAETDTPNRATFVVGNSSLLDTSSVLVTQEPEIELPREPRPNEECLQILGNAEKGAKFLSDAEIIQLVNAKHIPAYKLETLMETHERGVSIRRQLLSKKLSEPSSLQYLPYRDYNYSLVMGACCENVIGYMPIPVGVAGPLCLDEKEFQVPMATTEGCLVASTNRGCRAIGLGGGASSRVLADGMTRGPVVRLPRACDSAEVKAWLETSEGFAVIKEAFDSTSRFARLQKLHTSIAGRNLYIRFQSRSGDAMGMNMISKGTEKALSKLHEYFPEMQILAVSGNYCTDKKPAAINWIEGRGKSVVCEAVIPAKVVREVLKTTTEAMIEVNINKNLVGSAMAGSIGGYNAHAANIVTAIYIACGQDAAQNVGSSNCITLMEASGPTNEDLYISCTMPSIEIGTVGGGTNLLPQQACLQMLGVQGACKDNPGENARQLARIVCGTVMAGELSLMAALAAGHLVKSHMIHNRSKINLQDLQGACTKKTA
Description: (§1) In vitro ability to inhibit HMG-CoA reductase. To be noted: read-out: I50.

Assay [2] has as its target T2, 3-hydroxy-3-methylglutaryl-coenzyme A reductase (Rattus norvegicus, UniProt P51639).
T2 sequence (P51639 whole entry): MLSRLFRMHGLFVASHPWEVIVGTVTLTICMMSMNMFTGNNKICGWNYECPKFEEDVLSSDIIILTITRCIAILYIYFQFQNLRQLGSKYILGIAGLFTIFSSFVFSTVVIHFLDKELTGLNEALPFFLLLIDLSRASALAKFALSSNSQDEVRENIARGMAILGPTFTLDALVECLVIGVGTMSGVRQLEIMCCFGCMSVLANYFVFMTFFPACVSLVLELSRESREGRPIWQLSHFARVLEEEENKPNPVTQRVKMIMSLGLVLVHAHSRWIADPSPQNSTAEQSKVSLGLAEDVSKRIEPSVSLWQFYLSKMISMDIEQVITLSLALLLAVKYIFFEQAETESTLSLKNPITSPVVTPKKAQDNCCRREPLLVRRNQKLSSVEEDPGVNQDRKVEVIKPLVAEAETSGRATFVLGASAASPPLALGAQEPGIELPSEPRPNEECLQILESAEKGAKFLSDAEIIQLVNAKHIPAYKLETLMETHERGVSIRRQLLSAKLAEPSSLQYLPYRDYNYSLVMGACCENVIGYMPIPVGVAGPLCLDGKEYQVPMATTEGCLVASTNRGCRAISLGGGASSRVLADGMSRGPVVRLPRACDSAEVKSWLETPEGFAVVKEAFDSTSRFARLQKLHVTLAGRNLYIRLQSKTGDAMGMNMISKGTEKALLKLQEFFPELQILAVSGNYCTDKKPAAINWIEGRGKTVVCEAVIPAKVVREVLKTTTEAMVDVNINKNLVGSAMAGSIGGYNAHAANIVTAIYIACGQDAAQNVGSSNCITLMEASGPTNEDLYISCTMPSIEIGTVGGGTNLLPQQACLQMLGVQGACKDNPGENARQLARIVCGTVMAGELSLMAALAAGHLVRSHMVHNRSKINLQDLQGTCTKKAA
The assay is described as §1. To be noted: read-out: I50.

Consider `CCC[C@@H]1CC[C@H](C)[C@H](CC[C@@H](O)C[C@@H](O)CC(=O)O)[C@H]1COC(=O)C(C)(C)CC`, for which, in assay [1], the IC50 came out at 0.008 µM. Regarding `CC[C@H](C)C(=O)OC[C@H]1CCCC[C@@H]1CCC(=O)C[C@@H](O)CC(=O)O`, in assay [2], the IC50 stood at 320 µM.

For the compound `C[C@H]1C=CC[C@H](COC(=O)C(C)(C)C)[C@H]1CCC(O)CC(O)CC(=O)O` (stereo partly specified), in assay [1], the IC50 stood at 1500 µM. Take `CCC[C@@H]1CCC[C@H](/C=C/[C@@H](O)C[C@@H](O)CC(=O)O)[C@H]1COC(=O)C(C)(C)CC`: the IC50 in assay [1] turned out to be 4.9 µM.

As to `CCC(C)(C)C(=O)OC[C@H]1CCCC[C@@H]1CCC(O)C[C@@H](O)CC(=O)O` (stereo partly specified), in assay [1], the IC50 came out at 4.6 µM. With `CCC[C@@H]1CCC[C@H](CC[C@@H](O)C[C@@H](O)CC(=O)O)[C@H]1COC(=O)C(C)(C)CC`, the IC50 in assay [1] came out at 1.7 µM.
